Results on eleven molecules are retold here after patent publication US20260125382A1, “COMPOUNDS FOR INHIBITING OR DEGRADING CDK2 AND/OR CDK9 AND MEDICINAL USE THEREOF” (KOREA RESEARCH INSTITUTE OF CHEMICAL TECHNOLOGY, priority 2022, published 2026).

The target of test [1] is T1, CDK2 (Homo sapiens, UniProt P24941).
T1 construct: endogenous in cells; host or cells: MDA-MB-231
As to the kind of experiment: CDK protein degradation activity (Western blotting), CDK2. The format is cell-based. The following applies: MDA-MB-231 cells, 16 hours, Western blot. As for the experimental part:
(§1) In order to evaluate the CDK protein degradation activity of the compounds according to the present invention, the following experiment was conducted.
(§2) MDA-MB-231 cells were seeded at 5×10^5 cells per well in a 6-well plate. The next day, the compounds were treated in each well to achieve final concentrations of 100 nM, 1 μM, and 10 μM. For the control group, an equal amount of DMSO was treated in the well as the compound. After 16 hours of treatment, cells were collected, and cell lysates were prepared using Triton X-100 lysis buffer (50 mM HEPES, pH 7.5, 40 mM NaCl, 1% Triton X-100, 1 mM EDTA, 1 mM EGTA, 10 mM pyrophosphate, 10 mM β-glycerophosphate, 50 mM NaF, 1 mM NaVO4, protease inhibitor). Cell lysates were quantified and separated by size using sodium dodecyl sulfate-polyacrylamide gel electrophoresis (SDS-PAGE). Western blotting was then performed using antibodies that recognize CDK2, CDK9, and tubulin, respectively. The results obtained by Western blotting were quantitatively analyzed using the ImageJ program, and representative images according to the experimental results are shown in FIG. 1.

The target of test [2] is T2, CDK9 (Homo sapiens, UniProt P50750).
T2 construct: endogenous in cells; host or cells: MDA-MB-231
T2 sequence (P50750 whole entry): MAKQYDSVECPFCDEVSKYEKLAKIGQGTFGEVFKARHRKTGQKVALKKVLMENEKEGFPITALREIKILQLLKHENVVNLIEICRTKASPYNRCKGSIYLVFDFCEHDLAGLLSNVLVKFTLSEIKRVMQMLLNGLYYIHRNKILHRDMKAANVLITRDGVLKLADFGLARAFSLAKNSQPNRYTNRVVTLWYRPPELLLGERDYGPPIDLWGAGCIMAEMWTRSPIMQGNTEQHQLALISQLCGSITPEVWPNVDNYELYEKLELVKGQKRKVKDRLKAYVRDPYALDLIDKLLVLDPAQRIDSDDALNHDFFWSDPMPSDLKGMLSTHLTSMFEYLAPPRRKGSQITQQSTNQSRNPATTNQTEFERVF
In words: CDK protein degradation activity (Western blotting), CDK9. The format is cell-based. The conditions noted are these: MDA-MB-231 cells, 16 hours, Western blot. How it is done: as §1, §2

For `Cc1cccc(C(=O)N[C@H]2C[C@@H](n3cnc4c(NC5CCN(CC6CCN(C(=O)CNc7ccc8c(c7)C(=O)N([C@H]7CCC(=O)NC7=O)C8=O)CC6)CC5)ncnc43)C2)n1` [Compound 25, N-((1s,3s)-3-(6-((1-((1-((2-(2,6-dioxopiperidin-3-yl)-1,3-dioxoisoindolin-5-yl)glycyl)piperidin-4-yl)methyl)piperidin-4-yl)amino)-9H-purin-9-yl)cyclobutyl)-6-methylpicolinamide], in test [1], the “Enzyme degradation CDK2 (% remaining) @ 0.1 μM” value was found to be 20%, the “Enzyme degradation CDK2 (% remaining) @ 1 μM” value is 20% and the “Enzyme degradation CDK2 (% remaining) @ 10 μM” value is recorded as 30%. In test [2], the “Enzyme degradation CDK9 (% remaining) @ 0.1 μM” value was 0/0/0%, the “Enzyme degradation CDK9 (% remaining) @ 1 μM” value is recorded as 0/0/0% and the “Enzyme degradation CDK9 (% remaining) @ 10 μM” value is recorded as 0/0/0%.
Consider `Cc1cccc(C(=O)N[C@H]2C[C@@H](n3cnc4c(NC5CCN(CCC6CCN(C(=O)COc7ccc8c(c7)C(=O)N(C7CCC(=O)NC7=O)C8=O)CC6)CC5)ncnc43)C2)n1` (stereo partly drawn) [Compound 31, N-((1s,3s)-3-(6-((1-(2-(1-(2-((2-(2,6-dioxopiperidin-3-yl)-1,3-dioxoisoindolin-5-yl)oxy)acetyl)piperidin-4-yl)ethyl)piperidin-4-yl)amino)-9H-purin-9-yl)cyclobutyl)-6-methylpicolinamide], for which, in test [1], the “Enzyme degradation CDK2 (% remaining) @ 0.1 μM” value was found to be 70%, the “Enzyme degradation CDK2 (% remaining) @ 1 μM” value is reported as 40% and the “Enzyme degradation CDK2 (% remaining) @ 10 μM” value turned out to be 30%. In addition, in test [2], the “Enzyme degradation CDK9 (% remaining) @ 0.1 μM” value was determined as 10%, the “Enzyme degradation CDK9 (% remaining) @ 1 μM” value stood at 0% and the “Enzyme degradation CDK9 (% remaining) @ 10 μM” value is listed as 0%.
As for `Cc1cccc(C(=O)NC2CC(n3cnc4c(NC5CCN(CCC6CCN(C(=O)COc7cccc8c7C(=O)N([C@H]7CCC(=O)NC7=O)C8=O)CC6)CC5)ncnc43)C2)n1` (stereo partly drawn) [Compound 32, N-((1s,3s)-3-(6-((1-(2-(1-(2-((2-(2,6-dioxopiperidin-3-yl)-1,3-dioxoisoindolin-4-yl)oxy)acetyl)piperidin-4-yl)ethyl)piperidin-4-yl)amino)-9H-purin-9-yl)cyclobutyl)-6-methylpicolinamide], in test [1], the “Enzyme degradation CDK2 (% remaining) @ 0.1 μM” value is reported as 60%, the “Enzyme degradation CDK2 (% remaining) @ 1 μM” value was 20% and the “Enzyme degradation CDK2 (% remaining) @ 10 μM” value is recorded as 20%. In addition, in test [2], the “Enzyme degradation CDK9 (% remaining) @ 0.1 μM” value was 50%, the “Enzyme degradation CDK9 (% remaining) @ 1 μM” value was determined as 0% and the “Enzyme degradation CDK9 (% remaining) @ 10 μM” value is reported as 0%.
As to `Cc1cccc(C(=O)N[C@H]2C[C@@H](n3cnc4c(NC5CCN(CCC6CCN(C(=O)CNc7cccc8c7C(=O)N(C7CCC(=O)NC7=O)C8=O)CC6)CC5)ncnc43)C2)n1` (stereo partly drawn) [Compound 34, N-((1s,3s)-3-(6-((1-(2-(1-((2-(2,6-dioxopiperidin-3-yl)-1,3-dioxoisoindolin-4-yl)glycyl)piperidin-4-yl)ethyl)piperidin-4-yl)amino)-9H-purin-9-yl)cyclobutyl)-6-methylpicolinamide], in test [1], the “Enzyme degradation CDK2 (% remaining) @ 0.1 μM” value stood at 50%, the “Enzyme degradation CDK2 (% remaining) @ 1 μM” value stood at 50% and the “Enzyme degradation CDK2 (% remaining) @ 10 μM” value is listed as 100%. In test [2], the “Enzyme degradation CDK9 (% remaining) @ 0.1 μM” value came out at 0%, the “Enzyme degradation CDK9 (% remaining) @ 1 μM” value was 0% and the “Enzyme degradation CDK9 (% remaining) @ 10 μM” value is reported as 10%.
In the case of `Cc1cccc(C(=O)N[C@H]2C[C@@H](n3cnc4c(NC5CCN(CCC6CCN(c7ccc8c(c7)C(=O)N([C@H]7CCC(=O)NC7=O)C8=O)CC6)CC5)ncnc43)C2)n1` [Compound 35, N-((1s,3s)-3-(6-((1-(2-(1-(2-(2,6-dioxopiperidin-3-yl)-1,3-dioxoisoindolin-5-yl)piperidin-4-yl)ethyl)piperidin-4-yl)amino)-9H-purin-9-yl)cyclobutyl)-6-methylpicolinamide], in test [1], the “Enzyme degradation CDK2 (% remaining) @ 0.1 μM” value is 100%, the “Enzyme degradation CDK2 (% remaining) @ 1 μM” value stood at 60% and the “Enzyme degradation CDK2 (% remaining) @ 10 μM” value came out at 60%. Further, in test [2], the “Enzyme degradation CDK9 (% remaining) @ 0.1 μM” value is reported as 0%, the “Enzyme degradation CDK9 (% remaining) @ 1 μM” value is given as 10% and the “Enzyme degradation CDK9 (% remaining) @ 10 μM” value is 10%.
As for `Cc1cccc(C(=O)N[C@H]2C[C@@H](n3cnc4c(NC5CCN(CCC6CCN(c7cccc8c7C(=O)N([C@H]7CCC(=O)CC7=O)C8=O)CC6)CC5)ncnc43)C2)n1` [Compound 36, N-((1s,3s)-3-(6-((1-(2-(1-(2-(2,4-dioxocyclohexyl)-1,3-dioxoisoindolin-4-yl)piperidin-4-yl)ethyl)piperidin-4-yl)amino)-9H-purin-9-yl)cyclobutyl)-6-methylpicolinamide], in test [1], the “Enzyme degradation CDK2 (% remaining) @ 0.1 μM” value is reported as 100/100/100%, the “Enzyme degradation CDK2 (% remaining) @ 1 μM” value was 100/100/100% and the “Enzyme degradation CDK2 (% remaining) @ 10 μM” value is 100/100/100%. In test [2], the “Enzyme degradation CDK9 (% remaining) @ 0.1 μM” value is given as 30%, the “Enzyme degradation CDK9 (% remaining) @ 1 μM” value worked out at 10% and the “Enzyme degradation CDK9 (% remaining) @ 10 μM” value is listed as 20%.
Regarding `Cc1cccc(C(=O)N[C@H]2C[C@@H](n3cnc4c(NC5CCN(CCCN6CCN(C(=O)CNc7cccc8c7C(=O)N([C@H]7CCC(=O)NC7=O)C8=O)CC6)CC5)ncnc43)C2)n1` [Compound 38, N-((1s,3s)-3-(6-((1-(3-(4-((2-(2,6-dioxopiperidin-3-yl)-1,3-dioxoisoindolin-4-yl)glycyl)piperazin-1-yl)propyl)piperidin-4-yl)amino)-9H-purin-9-yl)cyclobutyl)-6-methylpicolinamide], in test [1], the “Enzyme degradation CDK2 (% remaining) @ 0.1 μM” value came to 40%, the “Enzyme degradation CDK2 (% remaining) @ 1 μM” value is given as 30% and the “Enzyme degradation CDK2 (% remaining) @ 10 μM” value is 20%. In test [2], the “Enzyme degradation CDK9 (% remaining) @ 0.1 μM” value was 0/0/0%, the “Enzyme degradation CDK9 (% remaining) @ 1 μM” value was 0/0/0% and the “Enzyme degradation CDK9 (% remaining) @ 10 μM” value is recorded as 0/0/0%.
Turning to `Cc1cccc(C(=O)NC2CC(n3cnc4c(NC5CCN(CCCN6CCN(c7cccc8c7C(=O)N([C@H]7CCC(=O)NC7=O)C8=O)CC6)CC5)ncnc43)C2)n1` (stereo partly drawn) [Compound 42, N-((1s,3s)-3-(6-((1-(3-(4-(2-(2,6-dioxopiperidin-3-yl)-1,3-dioxoisoindolin-4-yl)piperazin-1-yl)propyl)piperidin-4-yl)amino)-9H-purin-9-yl)cyclobutyl)-6-methylpicolinamide], in test [1], the “Enzyme degradation CDK2 (% remaining) @ 0.1 μM” value was determined as 100%, the “Enzyme degradation CDK2 (% remaining) @ 1 μM” value worked out at 60% and the “Enzyme degradation CDK2 (% remaining) @ 10 μM” value is given as 30%. Further, in test [2], the “Enzyme degradation CDK9 (% remaining) @ 0.1 μM” value stood at 30%, the “Enzyme degradation CDK9 (% remaining) @ 1 μM” value amounted to 0% and the “Enzyme degradation CDK9 (% remaining) @ 10 μM” value worked out at 10%.
Take `Cc1cccc(C(=O)N[C@H]2C[C@@H](n3cnc4c(NC5CCN(CCOC6CCN(C(=O)COc7ccc8c(c7)C(=O)N([C@H]7CCC(=O)NC7=O)C8=O)CC6)CC5)ncnc43)C2)n1` [Compound 43, N-((1s,3s)-3-(6-((1-(2-((1-(2-((2-(2,6-dioxopiperidin-3-yl)-1,3-dioxoisoindolin-5-yl)oxy)acetyl)piperidin-4-yl)oxy)ethyl)piperidin-4-yl)amino)-9H-purin-9-yl)cyclobutyl)-6-methylpicolinamide]: in test [1], the “Enzyme degradation CDK2 (% remaining) @ 0.1 μM” value is 90%, the “Enzyme degradation CDK2 (% remaining) @ 1 μM” value is given as 60% and the “Enzyme degradation CDK2 (% remaining) @ 10 μM” value was 70%. Further, in test [2], the “Enzyme degradation CDK9 (% remaining) @ 0.1 μM” value worked out at 50%, the “Enzyme degradation CDK9 (% remaining) @ 1 μM” value worked out at 0% and the “Enzyme degradation CDK9 (% remaining) @ 10 μM” value is 0%.
As to `Cc1cccc(C(=O)N[C@H]2C[C@@H](n3cnc4c(NC5CCN(CCOC6CCN(C(=O)CNc7ccc8c(c7)C(=O)N(C7CCC(=O)NC7=O)C8=O)CC6)CC5)ncnc43)C2)n1` (stereo partly drawn) [Compound 45, N-((1s,3s)-3-(6-((1-(2-((1-((2-(2,6-dioxopiperidin-3-yl)-1,3-dioxoisoindolin-5-yl)glycyl)piperidin-4-yl)oxy)ethyl)piperidin-4-yl)amino)-9H-purin-9-yl)cyclobutyl)-6-methylpicolinamide], in test [1], the “Enzyme degradation CDK2 (% remaining) @ 0.1 μM” value turned out to be 80%, the “Enzyme degradation CDK2 (% remaining) @ 1 μM” value was determined as 60% and the “Enzyme degradation CDK2 (% remaining) @ 10 μM” value stood at 90%. In test [2], the “Enzyme degradation CDK9 (% remaining) @ 0.1 μM” value was 0/0/0%, the “Enzyme degradation CDK9 (% remaining) @ 1 μM” value is reported as 0/0/0% and the “Enzyme degradation CDK9 (% remaining) @ 10 μM” value is 0/0/0%.
Regarding `Cc1cccc(C(=O)NC2CC(n3cnc4c(NC5CCN(CCOC6CCN(C(=O)CNc7cccc8c7C(=O)N([C@H]7CCC(=O)NC7=O)C8=O)CC6)CC5)ncnc43)C2)n1` (stereo partly drawn) [Compound 46, N-((1s,3s)-3-(6-((1-(2-((1-((2-(2,6-dioxopiperidin-3-yl)-1,3-dioxoisoindolin-4-yl)glycyl)piperidin-4-yl)oxy)ethyl)piperidin-4-yl)amino)-9H-purin-9-yl)cyclobutyl)-6-methylpicolinamide], in test [1], the “Enzyme degradation CDK2 (% remaining) @ 0.1 μM” value came to 80%, the “Enzyme degradation CDK2 (% remaining) @ 1 μM” value amounted to 90% and the “Enzyme degradation CDK2 (% remaining) @ 10 μM” value is recorded as 100%. Further, in test [2], the “Enzyme degradation CDK9 (% remaining) @ 0.1 μM” value turned out to be 20%, the “Enzyme degradation CDK9 (% remaining) @ 1 μM” value is 10% and the “Enzyme degradation CDK9 (% remaining) @ 10 μM” value turned out to be 30%.
